Five compounds from patent US7256187B2, “Rifamycin C-11 oxime derivatives effective against drug-resistant microbes” (Cumbre Pharmaceuticals Inc., priority 2004, dated 2007) can be followed below.

Values after ≈ are worked out from the molar mass of the structure shown.

What all share (format): cell-based
Experiment [1] concerns Staphylococcus aureus ATCC29213. As to the kind of experiment: MIC, microbroth dilution. Particulars: Staphylococcus aureus ATCC29213, rifS; read-out: Antimicrobial activity (MIC). For orientation: Dilution methods test growth across graded concentrations, often in twofold steps.
The subject of experiment [2] is Staphylococcus aureus ATCC29213 rpoB^D417Y. Put plainly: microbe, parasite or virus in culture. The following applies: Staphylococcus aureus ATCC29213 rpoB^D417Y, rifR; read-out: Antimicrobial activity (MIC). As to the method:
(§1) Representative compounds were assayed for antimicrobial activity as follows: Minimum Inhibitory Concentrations (“MICs”) were determined by the microbroth dilution method as per NCCLS guidelines (National Committee for Clinical Laboratory Standards. 2000. Methods for dilution antimicrobial susceptibility tests for bacteria that grow aerobically, 5th ed. M7-A5. National Committee for Clinical Laboratory Standards, Wayne, Pa.), except that all growth incubations were conducted at 37° C. Bacterial cultures were tested in the following bacteriological media: S. aureus, S. epidermidis, and E. coli in Cation-Adjusted Mueller-Hinton Broth, S. pneumoniae in THY Broth supplemented with 1 mg/mL catalase under 5% CO2 atmosphere, S. pyogenes in THY Broth, E. faecalis in BHI Broth, H. influenzae in BHI Broth supplemented with 0.75 μL of 1 mg/mL NAD and 150 μL of 1 mg/ml hematin per 5 mL, and M. smegmatis in Middlebrook Broth plus ADC Enrichment.
(§2) S. aureus ATCC 29213 RpoB^H418Y is a rifampin-resistant strain with a mutation in the RpoB gene of RNA polymerase. […] S. aureus EN1252a gyrA^S84L grlA^S80F is a quinolone-resistant strain due to double gene mutations of DNA gyrase and topoisomerase IV.

Experiment [3] concerns Staphylococcus aureus ATCC29213 rpoB^H418Y. Put plainly: microbe, parasite or virus in culture. The following applies: Staphylococcus aureus ATCC29213 rpoB^H418Y, rifR; read-out: Antimicrobial activity (MIC). As to the method:
as §1, §2

Experiment [4] deals with Staphylococcus aureus EN1252a gyrA^S84L grlA^S80F. As to the kind of experiment: microbe, parasite or virus in culture. Particulars: Staphylococcus aureus EN1252a gyrA^S84L grlA^S80F, cipR; read-out: Antimicrobial activity (MIC). Here is the method: as §1, §2
The subject of experiment [5] is Staphylococcus epidermidis ATCC12228. Put plainly: MIC, microbroth dilution. The following applies: Staphylococcus epidermidis ATCC12228, rifS; read-out: Antimicrobial activity (MIC).
For experiment [6], the system named is Streptococcus pneumoniae ATCC6303. Put plainly: MIC, microbroth dilution. Particulars: Streptococcus pneumoniae ATCC6303, rifS; read-out: Antimicrobial activity (MIC).
For experiment [7], the system named is Streptococcus pyogenes ATCC19615. Put plainly: MIC, microbroth dilution. The following applies: Streptococcus pyogenes ATCC19615, rifS; read-out: Antimicrobial activity (MIC).
Experiment [8] relates to Enterococcus faecalis ATCC29212. As to the kind of experiment: MIC, microbroth dilution. Particulars: Enterococcus faecalis ATCC29212, rifS; read-out: Antimicrobial activity (MIC).
The subject of experiment [9] is Haemophilus influenzae ATCC10211. As to the kind of experiment: MIC, microbroth dilution. The following applies: Haemophilus influenzae ATCC10211, rifS; read-out: Antimicrobial activity (MIC).
The test system of experiment [10] is Escherichia coli ATCC25922. As to the kind of experiment: MIC, microbroth dilution. The following applies: Escherichia coli ATCC25922, rifS; read-out: Antimicrobial activity (MIC).
Experiment [11] deals with Mycobacterium smegmatis ATCC700084. As to the kind of experiment: MIC, microbroth dilution. Particulars: Mycolicibacterium smegmatis; Mycobacterium smegmatis ATCC700084, rifS; read-out: Antimicrobial activity (MIC).

Turning to `CO[C@H]1/C=C/O[C@@]2(C)Oc3c(C)c(O)c4c(c3/C2=N/OCCN2CCN(S(=O)(=O)c3cccc5ccncc35)CC2)C(=O)C=C(NC(=O)/C(C)=C\C=C\[C@H](C)[C@H](O)[C@@H](C)[C@@H](O)[C@@H](C)[C@H](OC(C)=O)[C@@H]1C)C4=O` [Example 19, 11-Deoxy-11-{2-[4-(isoquinoline-8-sulfonyl)-piperazin-1-yl]-ethoxyimino}rifamycin S], the MIC in experiment [1] was in the range of 0.004 to 0.5 µg/mL (≈ 0.00394 to 0.493 µM); in [2], 0.25 to 32 µg/mL (≈ 0.247 to 31.6 µM); in [3] it was 0.125 to 16 µg/mL (≈ 0.123 to 15.8 µM); in experiment [4], 0.004 to 0.5 µg/mL (≈ 0.00394 to 0.493 µM); in experiment [5] it was 0.0005 to 0.063 µg/mL (≈ 0.000493 to 0.0621 µM); in [6], 0.0002 to 0.125 µg/mL (≈ 0.000197 to 0.123 µM). The MIC was 0.0005 to 0.063 µg/mL (≈ 0.000493 to 0.0621 µM) in experiment [7]; 2 to 32 µg/mL (≈ 1.97 to 31.6 µM) in experiment [8]; 0.03 to 2 µg/mL (≈ 0.0296 to 1.97 µM) in [9]; 0.125 to 8 µg/mL (≈ 0.123 to 7.89 µM) in experiment [10]; 0.5 to 64 µg/mL (≈ 0.493 to 63.1 µM) in experiment [11].

In the case of `CO[C@H]1/C=C/O[C@@]2(C)Oc3c(C)c(O)c4c(c3/C2=N/OCCN(CCO)CCO)C(=O)C=C(NC(=O)/C(C)=C\C=C\[C@H](C)[C@H](O)[C@@H](C)[C@@H](O)[C@@H](C)[C@H](OC(C)=O)[C@@H]1C)C4=O` [Example 20, 11-Deoxy-11-{2-[bis-(2-hydroxy-ethyl)-amino]ethoxyimino}rifamycin S], the MIC in [1] was in the range of 0.004 to 0.5 µg/mL (≈ 0.00475 to 0.594 µM); in experiment [2], 0.25 to 32 µg/mL (≈ 0.297 to 38 µM); in [3], 0.125 to 16 µg/mL (≈ 0.148 to 19 µM); in experiment [4], 0.004 to 0.5 µg/mL (≈ 0.00475 to 0.594 µM); in experiment [5] it was 0.0005 to 0.063 µg/mL (≈ 0.000594 to 0.0748 µM); in [6], 0.0002 to 0.125 µg/mL (≈ 0.000238 to 0.148 µM). The MIC in experiment [7] lay within 0.0005 to 0.063 µg/mL (≈ 0.000594 to 0.0748 µM); in experiment [8] it was 2 to 32 µg/mL (≈ 2.38 to 38 µM); in [9], 0.03 to 2 µg/mL (≈ 0.0356 to 2.38 µM); in experiment [10] it was 0.125 to 8 µg/mL (≈ 0.148 to 9.5 µM); in [11], 0.5 to 64 µg/mL (≈ 0.594 to 76 µM).

For `CO[C@H]1/C=C/O[C@@]2(C)Oc3c(C)c(O)c4c(c3/C2=N/OCCN2CC(C)NC(C)C2)C(=O)C=C(NC(=O)/C(C)=C\C=C\[C@H](C)[C@H](O)[C@@H](C)[C@@H](O)[C@@H](C)[C@H](OC(C)=O)[C@@H]1C)C4=O` (stereo partly shown) [Example 21, 11-Deoxy-11-[2-(3,5-dimethyl-piperazin-1-yl)ethoxyimino]rifamycin S], the MIC in [1] lay in the range of 0.004 to 0.5 µg/mL (≈ 0.0047 to 0.588 µM); in [2], 0.25 to 32 µg/mL (≈ 0.294 to 37.6 µM); in experiment [3], 0.125 to 16 µg/mL (≈ 0.147 to 18.8 µM); in experiment [4] it was 0.004 to 0.5 µg/mL (≈ 0.0047 to 0.588 µM); in experiment [5], 0.0005 to 0.063 µg/mL (≈ 0.000588 to 0.074 µM); in experiment [6], 0.0002 to 0.125 µg/mL (≈ 0.000235 to 0.147 µM). The MIC in [7] fell in the range of 0.0005 to 0.063 µg/mL (≈ 0.000588 to 0.074 µM); in experiment [8], 2 to 32 µg/mL (≈ 2.35 to 37.6 µM); in [9], 0.03 to 2 µg/mL (≈ 0.0353 to 2.35 µM); in experiment [10], 0.125 to 8 µg/mL (≈ 0.147 to 9.4 µM); in experiment [11], 0.5 to 64 µg/mL (≈ 0.588 to 75.2 µM).

For `CO[C@H]1/C=C/O[C@@]2(C)Oc3c(C)c(O)c4c(c3/C2=N/OCCN2CCN(C)CC2)C(=O)C=C(NC(=O)/C(C)=C\C=C\[C@H](C)[C@H](O)[C@@H](C)[C@@H](O)[C@@H](C)[C@H](OC(C)=O)[C@@H]1C)C4=O` [Example 22, 11-Deoxy-11-[2-(4-methylpiperazin-1-yl)ethoxyimino]rifamycin S], the MIC in experiment [1] lay in the range of 0.004 to 0.5 µg/mL (≈ 0.00478 to 0.597 µM); in experiment [2], 0.25 to 32 µg/mL (≈ 0.299 to 38.2 µM); in [3], 0.125 to 16 µg/mL (≈ 0.149 to 19.1 µM); in experiment [4], 0.004 to 0.5 µg/mL (≈ 0.00478 to 0.597 µM); in [5] it was 0.0005 to 0.063 µg/mL (≈ 0.000597 to 0.0753 µM); in [6], 0.0002 to 0.125 µg/mL (≈ 0.000239 to 0.149 µM). In addition, the MIC in experiment [7] lay within 0.0005 to 0.063 µg/mL (≈ 0.000597 to 0.0753 µM); in [8], 2 to 32 µg/mL (≈ 2.39 to 38.2 µM); in experiment [9], 0.03 to 2 µg/mL (≈ 0.0358 to 2.39 µM); in [10], 0.125 to 8 µg/mL (≈ 0.149 to 9.56 µM); in experiment [11], 0.5 to 64 µg/mL (≈ 0.597 to 76.5 µM).

For the compound `CO[C@H]1/C=C/O[C@@]2(C)Oc3c(C)c(O)c4c(c3/C2=N/OCCN2CCC(O)CC2)C(=O)C=C(NC(=O)/C(C)=C\C=C\[C@H](C)[C@H](O)[C@@H](C)[C@@H](O)[C@@H](C)[C@H](OC(C)=O)[C@@H]1C)C4=O` [Example 23, 11-Deoxy-11-[2-(4-hydroxypiperadin-1-yl)ethoxyimino]rifamycin S], the MIC in experiment [1] is 0.004 to 0.5 µg/mL (≈ 0.00477 to 0.597 µM); in experiment [2], 0.25 to 32 µg/mL (≈ 0.298 to 38.2 µM); in experiment [3], 0.125 to 16 µg/mL (≈ 0.149 to 19.1 µM); in [4] it was 0.004 to 0.5 µg/mL (≈ 0.00477 to 0.597 µM); in experiment [5], 0.0005 to 0.063 µg/mL (≈ 0.000597 to 0.0752 µM); in experiment [6], 0.0002 to 0.125 µg/mL (≈ 0.000239 to 0.149 µM). In addition, the MIC lay in the range of 0.0005 to 0.063 µg/mL (≈ 0.000597 to 0.0752 µM) in [7]; 2 to 32 µg/mL (≈ 2.39 to 38.2 µM) in [8]; 0.03 to 2 µg/mL (≈ 0.0358 to 2.39 µM) in experiment [9]; 0.125 to 8 µg/mL (≈ 0.149 to 9.55 µM) in experiment [10]; 0.5 to 64 µg/mL (≈ 0.597 to 76.4 µM) in experiment [11].
